Values after ≈ are worked out from the molar mass of the structure shown.
Experiments:
M. tuberculosis H37Rv = experiment: Drug sensitivity testing, Bactec MGIT 960; type: cell-based, Mycobacterium tuberculosis; set-up: key: sensitive (S); resistant (R); settings: strain H37Rv
[1] = tested on: M. tuberculosis strain 952; experiment: Drug sensitivity testing, Bactec MGIT 960; type: cell-based, Mycobacterium tuberculosis; set-up: key: sensitive (S); resistant (R)
[2] = tested on: M. tuberculosis strain 1097; experiment: Drug sensitivity testing, Bactec MGIT 960; type: cell-based, Mycobacterium tuberculosis; set-up: key: sensitive (S); resistant (R)
[3] = tested on: M. tuberculosis strain 1670; experiment: Drug sensitivity testing, Bactec MGIT 960; type: cell-based, Mycobacterium tuberculosis; set-up: key: sensitive (S); resistant (R)
[4] = tested on: M. tuberculosis strain 512; experiment: Drug sensitivity testing, Bactec MGIT 960; type: cell-based, Mycobacterium tuberculosis; set-up: key: sensitive (S); resistant (R)
[5] = tested on: M. tuberculosis strain 600; experiment: Drug sensitivity testing, Bactec MGIT 960; type: cell-based, Mycobacterium tuberculosis; set-up: key: sensitive (S); resistant (R)
[6] = tested on: M. tuberculosis strain 368; experiment: Drug sensitivity testing, Bactec MGIT 960; type: cell-based, Mycobacterium tuberculosis; set-up: key: sensitive (S); resistant (R)
[7] = tested on: M. tuberculosis strain 1762; experiment: Drug sensitivity testing, Bactec MGIT 960; type: cell-based, Mycobacterium tuberculosis; set-up: key: sensitive (S); resistant (R)
[8] = tested on: M. tuberculosis strain 571; experiment: Drug sensitivity testing, Bactec MGIT 960; type: cell-based, Mycobacterium tuberculosis; set-up: key: sensitive (S); resistant (R)
[9] = tested on: M. tuberculosis strain 1120; experiment: Drug sensitivity testing, Bactec MGIT 960; type: cell-based, Mycobacterium tuberculosis; set-up: key: sensitive (S); resistant (R)
[10] = tested on: M. tuberculosis H37Rv strain (ATCC 27294); experiment: Resazurin microtiter assay (REMA); type: cell-based; settings: Mycobacterium tuberculosis, drug alone
Method: REMA assays were performed in sterile 96-well microtiter plates with round-bottom wells, sealed in a plastic bag. Mycobacteria were cultured in Middlebrook 7H11 medium supplemented with OADC. […] Final bacterial inocula were approximately 1–5 × 10^5 CFU/mL. Plates were incubated at 37 °C and were read after 72 h. Once the final visual reading was performed, 30 μL of 0.02% resazurin was added to each well before reincubation overnight. Bacterial growth was measured by the change in color from blue (oxidized state) to pink (reduced), and minimal inhibitory concentration (MIC) was defined as the lowest drug concentration that prevented the color change and, therefore, the mycobacteria growth.

[11] = tested on: M. tuberculosis clinical isolate 952; experiment: microbe, parasite or virus in culture; type: cell-based; settings: Mycobacterium tuberculosis
[12] = tested on: M. tuberculosis clinical isolate 1097; experiment: microbe, parasite or virus in culture; type: cell-based; settings: Mycobacterium tuberculosis
[13] = tested on: M. tuberculosis clinical isolate 1670; experiment: microbe, parasite or virus in culture; type: cell-based; settings: Mycobacterium tuberculosis
[14] = tested on: M. tuberculosis clinical isolate 512; experiment: microbe, parasite or virus in culture; type: cell-based; settings: Mycobacterium tuberculosis
[15] = tested on: M. tuberculosis clinical isolate 600; experiment: microbe, parasite or virus in culture; type: cell-based; settings: Mycobacterium tuberculosis
[16] = tested on: M. tuberculosis clinical isolate 368; experiment: microbe, parasite or virus in culture; type: cell-based; settings: Mycobacterium tuberculosis
[17] = tested on: M. tuberculosis clinical isolate 1762; experiment: microbe, parasite or virus in culture; type: cell-based; settings: Mycobacterium tuberculosis
[18] = tested on: M. tuberculosis clinical isolate 571; experiment: microbe, parasite or virus in culture; type: cell-based; settings: Mycobacterium tuberculosis
[19] = tested on: M. tuberculosis clinical isolate 1120; experiment: microbe, parasite or virus in culture; type: cell-based; settings: Mycobacterium tuberculosis

For CO[C@H]1/C=C/O[C@@]2(C)Oc3c(C)c(O)c4c(O)c(c(/C=N/N5CCN(C)CC5)c(O)c4c3C2=O)NC(=O)/C(C)=C\C=C\[C@H](C)[C@H](O)[C@@H](C)[C@@H](O)[C@@H](C)[C@H](OC(C)=O)[C@@H]1C [RIF, rifampicin], the “Drug sensitivity test result” value (M. tuberculosis H37Rv) was “S”, the “Drug sensitivity test result” value [1] was “R” and the “Drug sensitivity test result” value [2] was “S”. For the same compound, the “Drug sensitivity test result” value [3] was “S”, the “Drug sensitivity test result” value [4] was “R” and the “Drug sensitivity test result” value [5] was “R”. For the same compound, the “Drug sensitivity test result” value [6] was “S”, the “Drug sensitivity test result” value [7] was “R” and the “Drug sensitivity test result” value [8] was “R”. For the same compound, the “Drug sensitivity test result” value [9] was “R”, the MIC [10] was 0.25 µg/mL (≈ 0.304 µM) and the MIC [11] was 0.5 µg/mL (≈ 0.608 µM). It also gave an MIC [12] of 0.25 µg/mL (≈ 0.304 µM), an MIC [13] of 0.125 µg/mL (≈ 0.152 µM) and an MIC [14] greater than 2 µg/mL. For the same compound, the MIC [15] was greater than 2 µg/mL, the MIC [16] was 0.25 µg/mL (≈ 0.304 µM) and the MIC [17] was greater than 2 µg/mL. The MIC [18] was greater than 2 µg/mL and the MIC [19] was 8 µg/mL (≈ 9.72 µM).

In the case of NNC(=O)c1ccncc1 [INH, isoniazid], the “Drug sensitivity test result” value (M. tuberculosis H37Rv) is reported as “S”, the “Drug sensitivity test result” value [1] is reported as “S” and the “Drug sensitivity test result” value [2] is reported as “R”. For the same compound, the “Drug sensitivity test result” value [3] was “S”, the “Drug sensitivity test result” value [4] was “R” and the “Drug sensitivity test result” value [5] was “R”. For the same compound, the “Drug sensitivity test result” value [6] was “R”, the “Drug sensitivity test result” value [7] was “S” and the “Drug sensitivity test result” value [8] was “R”. The “Drug sensitivity test result” value [9] was “R”, the MIC [10] was 0.125 µg/mL (≈ 0.911 µM) and the MIC [11] was 0.062 µg/mL (≈ 0.452 µM). It also gave an MIC [12] of 2 µg/mL (≈ 14.6 µM), an MIC [13] of 0.125 µg/mL (≈ 0.911 µM) and an MIC [14] of 1 µg/mL (≈ 7.29 µM). For the same compound, the MIC [15] was greater than 1 µg/mL, the MIC [16] was less than 1 µg/mL and the MIC [17] was 0.062 µg/mL (≈ 0.452 µM). For the same compound, the MIC [18] was greater than 1 µg/mL and the MIC [19] was greater than 16 µg/mL.

In the case of [H]/N=C(/N)N[C@H]1[C@H](O)[C@@H](O)[C@H](O[C@@H]2O[C@@H](C)[C@](O)(C=O)[C@H]2O[C@@H]2O[C@@H](CO)[C@H](O)[C@@H](O)[C@@H]2NC)[C@@H](N/C(N)=N\[H])[C@@H]1O [SM, streptomycin], the “Drug sensitivity test result” value (M. tuberculosis H37Rv) is reported as “S”, the “Drug sensitivity test result” value [1] is reported as “S” and the “Drug sensitivity test result” value [2] is reported as “R”. The “Drug sensitivity test result” value [3] was “S”, the “Drug sensitivity test result” value [4] was “S” and the “Drug sensitivity test result” value [5] was “R”. For the same compound, the “Drug sensitivity test result” value [6] was “S”, the “Drug sensitivity test result” value [7] was “S” and the “Drug sensitivity test result” value [8] was “R”. The “Drug sensitivity test result” value [9] was “R”, the MIC [10] was 0.125 µg/mL (≈ 0.215 µM) and the MIC [11] was 0.062 µg/mL (≈ 0.107 µM). For the same compound, the MIC [12] was 4 µg/mL (≈ 6.88 µM), the MIC [13] was 0.125 µg/mL (≈ 0.215 µM) and the MIC [14] was 0.5 µg/mL (≈ 0.86 µM). The MIC [15] was greater than 4 µg/mL, the MIC [16] was 0.5 µg/mL (≈ 0.86 µM) and the MIC [17] was 0.125 µg/mL (≈ 0.215 µM). The MIC [18] was 0.25 µg/mL (≈ 0.43 µM) and the MIC [19] was 4 µg/mL (≈ 6.88 µM).

For CC[C@@H](CO)NCCN[C@@H](CC)CO [EMB, ethambutol], the “Drug sensitivity test result” value (M. tuberculosis H37Rv) was “S”, the “Drug sensitivity test result” value [1] was “S” and the “Drug sensitivity test result” value [2] was “R”. The “Drug sensitivity test result” value [3] was “S”, the “Drug sensitivity test result” value [4] was “R” and the “Drug sensitivity test result” value [5] was “R”. The “Drug sensitivity test result” value [6] was “R”, the “Drug sensitivity test result” value [7] was “R” and the “Drug sensitivity test result” value [8] was “R”. The “Drug sensitivity test result” value [9] was “R”, the MIC [10] was 1 µg/mL (≈ 4.89 µM) and the MIC [11] was 1 µg/mL (≈ 4.89 µM). It also gave an MIC [12] of 32 µg/mL (≈ 157 µM), an MIC [13] of 1 µg/mL (≈ 4.89 µM) and an MIC [14] of 4 µg/mL (≈ 19.6 µM). The MIC [15] was greater than 16 µg/mL, the MIC [16] was greater than 16 µg/mL and the MIC [17] was 4 µg/mL (≈ 19.6 µM). The MIC [18] was greater than 16 µg/mL and the MIC [19] was greater than 64 µg/mL.
